Tests used:
MDA-MB-468 [1] = test: Anticancer activity against human MDA-MB-468 cells assessed as cell growth at 0.1 uM incubated for 48 hrs by SRB assay; format: functional; conditions: read-out: Activity
NCI-H226 [2] = test: Anticancer activity against human NCI-H226 cells assessed as cell growth at 1 uM incubated for 48 hrs by SRB assay; format: functional; conditions: read-out: Activity
MCF7 [3] = test: Anticancer activity against human MCF7 cells assessed as cell growth at 10 uM incubated for 48 hrs by SRB assay; format: functional; conditions: read-out: Activity
CYP1A1 [4] = target: T1, CYP1A1 (Homo sapiens, UniProt P04798); test: Inhibition of recombinant CYP1A1 (unknown origin) assessed as residual enzyme activity using 7-ethoxyresorufin as substrate at 50 uM incubated for 15 mins by resorufin dye based spectrofluorimetry (reference value: 100%); format: ADME; conditions: recombinant CYP1A1, probe 7-ethoxyresorufin, read-out: Activity
T1 sequence (P04798 whole entry): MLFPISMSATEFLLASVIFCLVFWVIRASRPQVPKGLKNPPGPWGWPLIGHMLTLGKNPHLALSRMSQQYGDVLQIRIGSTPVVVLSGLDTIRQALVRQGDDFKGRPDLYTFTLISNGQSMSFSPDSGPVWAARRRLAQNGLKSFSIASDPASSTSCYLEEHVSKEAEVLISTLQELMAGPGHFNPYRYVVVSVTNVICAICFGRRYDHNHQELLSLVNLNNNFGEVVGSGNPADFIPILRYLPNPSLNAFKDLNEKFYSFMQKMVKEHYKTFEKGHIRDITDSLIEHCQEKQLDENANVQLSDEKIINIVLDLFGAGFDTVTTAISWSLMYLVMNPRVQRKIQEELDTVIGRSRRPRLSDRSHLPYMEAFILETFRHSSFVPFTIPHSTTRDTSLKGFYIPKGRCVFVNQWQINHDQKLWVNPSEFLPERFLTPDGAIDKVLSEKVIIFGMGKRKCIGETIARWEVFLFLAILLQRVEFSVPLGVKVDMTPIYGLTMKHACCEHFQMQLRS

MDA-MB-468 [5] = test: Anticancer activity against human MDA-MB-468 cells assessed as inhibition of cell growth incubated for 48 hrs by SRB assay; format: functional; conditions: for CC50: read-out: LC50 (the source's name)
MDA-MB-435 [6] = test: Anticancer activity against human MDA-MB-435 cells assessed as cell growth at 10 uM incubated for 48 hrs by SRB assay; format: functional; conditions: read-out: Activity
NCI-H226 [7] = test: Anticancer activity against human NCI-H226 cells assessed as cell growth at 100 uM incubated for 48 hrs by SRB assay; format: functional; conditions: read-out: Activity
MDA-MB-468 [8] = test: Anticancer activity against human MDA-MB-468 cells assessed as cell growth at 100 uM incubated for 48 hrs by SRB assay; format: functional; conditions: read-out: Activity
Cytochrome P450 1A1 = target: T2, Cytochrome P450 1A1 (Homo sapiens, UniProt P04798); test: Inhibition of recombinant CYP1A1 (unknown origin) assessed as decrease in EROD activity using 7-ethoxyresorufin as substrate upto 100 uM incubated for 15 mins by resorufin dye based spectrofluorimetry; format: ADME; conditions: recombinant enzyme, 0.25 h
T2 sequence (P04798 whole entry): T1 sequence (P04798 whole entry)

NCI-H226 [9] = test: Anticancer activity against human NCI-H226 cells assessed as inhibition of cell growth incubated for 48 hrs by SRB assay; format: functional
MCF7 [10] = test: Anticancer activity against human MCF7 cells assessed as inhibition of cell growth incubated for 48 hrs by SRB assay; format: functional; conditions: for CC50: read-out: LC50 (the source's name)
CYP1A1 [11] = target: T1, CYP1A1; test: Inhibition of recombinant CYP1A1 (unknown origin) assessed as residual enzyme activity using 7-ethoxyresorufin as substrate at 0.01 uM incubated for 15 mins by resorufin dye based spectrofluorimetry (reference value: 100%); format: ADME; conditions: recombinant CYP1A1, probe 7-ethoxyresorufin, read-out: Activity
CYP1A1 [12] = target: T1, CYP1A1; test: Inhibition of recombinant CYP1A1 (unknown origin) assessed as residual enzyme activity using 7-ethoxyresorufin as substrate at 10 uM incubated for 15 mins by resorufin dye based spectrofluorimetry (reference value: 100%); format: ADME; conditions: recombinant CYP1A1, probe 7-ethoxyresorufin, read-out: Activity
NCI-H226 [13] = test: Anticancer activity against human NCI-H226 cells assessed as cell growth at 10 uM incubated for 48 hrs by SRB assay; format: functional; conditions: read-out: Activity
MDA-MB-468 [14] = test: Anticancer activity against human MDA-MB-468 cells assessed as cell growth at 1 uM incubated for 48 hrs by SRB assay; format: functional; conditions: read-out: Activity
MDA-MB-435 [15] = test: Anticancer activity against human MDA-MB-435 cells assessed as inhibition of cell growth incubated for 48 hrs by SRB assay; format: functional
CYP1A1 [16] = target: T1, CYP1A1; test: Inhibition of recombinant CYP1A1 (unknown origin) assessed as residual enzyme activity using 7-ethoxyresorufin as substrate at 100 uM incubated for 15 mins by resorufin dye based spectrofluorimetry (reference value: 100%); format: ADME; conditions: recombinant CYP1A1, probe 7-ethoxyresorufin, read-out: Activity
MDA-MB-435 [17] = test: Anticancer activity against human MDA-MB-435 cells assessed as cell growth at 100 uM incubated for 48 hrs by SRB assay; format: functional; conditions: read-out: Activity
MDA-MB-435 [18] = test: Anticancer activity against human MDA-MB-435 cells assessed as cell growth at 1 uM incubated for 48 hrs by SRB assay; format: functional; conditions: read-out: Activity
MDA-MB-435 [19] = test: Anticancer activity against human MDA-MB-435 cells assessed as cell growth at 0.1 uM incubated for 48 hrs by SRB assay; format: functional; conditions: read-out: Activity
NCI-H226 [20] = test: Anticancer activity against human NCI-H226 cells assessed as cell growth at 0.1 uM incubated for 48 hrs by SRB assay; format: functional; conditions: read-out: Activity
CYP1A1 [21] = target: T1, CYP1A1; test: Inhibition of recombinant CYP1A1 (unknown origin) assessed as residual enzyme activity using 7-ethoxyresorufin as substrate at 0.1 uM incubated for 15 mins by resorufin dye based spectrofluorimetry (reference value: 100%); format: ADME; conditions: recombinant CYP1A1, probe 7-ethoxyresorufin, read-out: Activity
MCF7 [22] = test: Anticancer activity against human MCF7 cells assessed as cell growth at 1 uM incubated for 48 hrs by SRB assay; format: functional; conditions: read-out: Activity
CYP1A1 [23] = target: T1, CYP1A1; test: Inhibition of recombinant CYP1A1 (unknown origin) assessed as residual enzyme activity using 7-ethoxyresorufin as substrate at 1 uM incubated for 15 mins by resorufin dye based spectrofluorimetry (reference value: 100%); format: ADME; conditions: recombinant CYP1A1, probe 7-ethoxyresorufin, read-out: Activity
MCF7 [24] = test: Anticancer activity against human MCF7 cells assessed as cell growth at 0.1 uM incubated for 48 hrs by SRB assay; format: functional; conditions: read-out: Activity
MCF7 [25] = test: Anticancer activity against human MCF7 cells assessed as cell growth at 100 uM incubated for 48 hrs by SRB assay; format: functional; conditions: read-out: Activity
MDA-MB-468 [26] = test: Anticancer activity against human MDA-MB-468 cells assessed as cell growth at 10 uM incubated for 48 hrs by SRB assay; format: functional; conditions: read-out: Activity

| Structure (SMILES) | growth at 0.1 µM (MDA-MB-468 [1]) [%] | growth at 1 µM (NCI-H226 [2]) [%] | growth at 10 µM (MCF7 [3]) [%] | activity at 0.25 h, 50 µM (CYP1A1 [4]) [%] | GI50 (MDA-MB-468 [5]) [µM] | TGI (MDA-MB-468 [5]) [µM] | CC50 (MDA-MB-468 [5]) [µM] | growth at 10 µM (MDA-MB-435 [6]) [%] | growth at 100 µM (NCI-H226 [7]) [%] | growth at 100 µM (MDA-MB-468 [8]) [%] | inhibition (INH) (Cytochrome P450 1A1) | GI50 (NCI-H226 [9]) [µM] | LC50 (concentration killing 50% of cells) (NCI-H226 [9]) [µM] | TGI (NCI-H226 [9]) [µM] | GI50 (MCF7 [10]) [µM] | TGI (MCF7 [10]) [µM] | CC50 (MCF7 [10]) [µM] | activity at 0.25 h, 0.01 µM (CYP1A1 [11]) [%] | activity at 0.25 h, 10 µM (CYP1A1 [12]) [%] | growth at 10 µM (NCI-H226 [13]) [%] | other results |
| --- | --- | --- | --- | --- | --- | --- | --- | --- | --- | --- | --- | --- | --- | --- | --- | --- | --- | --- | --- | --- | --- |
| Cc1cc(C)cc(O[C@H](C)C(=O)Nc2ccc(F)c([N+](=O)[O-])c2)c1 | 99.1 | 71.8 | 73.5 | 96.6 | 40.9 | 79.1 | > 100 | 100 | 58.2 | -29.4 | Not Active | > 100 | > 100 | > 100 | 61.6 | > 100 | > 100 | 98.8 | 95.7 | 65.6 | growth at 1 µM (MDA-MB-468 [14]): 97.9%; GI50 (MDA-MB-435 [15]): > 100 µM; LC50 (MDA-MB-435 [15]): > 100 µM; TGI (MDA-MB-435 [15]): > 100 µM; activity at 0.25 h, 100 µM (CYP1A1 [16]): 96.4%; growth at 100 µM (MDA-MB-435 [17]): 89.5%; growth at 1 µM (MDA-MB-435 [18]): 100%; growth at 0.1 µM (MDA-MB-435 [19]): 100%; growth at 0.1 µM (NCI-H226 [20]): 73.7%; activity at 0.25 h, 0.1 µM (CYP1A1 [21]): 93.5%; growth at 1 µM (MCF7 [22]): 85.5%; activity at 0.25 h, 1 µM (CYP1A1 [23]): 94.2%; growth at 0.1 µM (MCF7 [24]): 89.3%; growth at 100 µM (MCF7 [25]): 27.8%; growth at 10 µM (MDA-MB-468 [26]): 95.9% |
| Cc1ccc(-c2cc(C(N)=O)c3cc(Cl)ccc3n2)o1 | 91.9 | 76.6 | 79 | 100 | > 100 | > 100 | > 100 | 87.2 | 39.9 | 72.5 | Not Active | 70.5 | > 100 | > 100 | 63.9 | > 100 | > 100 | 98.5 | 98.6 | 60.5 | growth at 1 µM (MDA-MB-468 [14]): 90.6%; GI50 (MDA-MB-435 [15]): > 100 µM; LC50 (MDA-MB-435 [15]): > 100 µM; TGI (MDA-MB-435 [15]): > 100 µM; activity at 0.25 h, 100 µM (CYP1A1 [16]): 104%; growth at 100 µM (MDA-MB-435 [17]): 77.2%; growth at 1 µM (MDA-MB-435 [18]): 95%; growth at 0.1 µM (MDA-MB-435 [19]): 98.4%; growth at 0.1 µM (NCI-H226 [20]): 84.8%; activity at 0.25 h, 0.1 µM (CYP1A1 [21]): 101%; growth at 1 µM (MCF7 [22]): 92.5%; activity at 0.25 h, 1 µM (CYP1A1 [23]): 101%; growth at 0.1 µM (MCF7 [24]): 98.2%; growth at 100 µM (MCF7 [25]): 25.5%; growth at 10 µM (MDA-MB-468 [26]): 85.9% |
| Cc1nn(C[C@@H](O)COc2ccc3c(C)cc(=O)oc3c2)c(C)c1C | 100 | 77.5 | 69.2 | 101 | 76.6 | > 100 | > 100 | 100 | 49.1 | 33.7 | Not Active | 96.5 | > 100 | > 100 | 52.5 | > 100 | > 100 | 99.3 | 96.7 | 72.8 | growth at 1 µM (MDA-MB-468 [14]): 98%; GI50 (MDA-MB-435 [15]): > 100 µM; LC50 (MDA-MB-435 [15]): > 100 µM; TGI (MDA-MB-435 [15]): > 100 µM; activity at 0.25 h, 100 µM (CYP1A1 [16]): 103%; growth at 100 µM (MDA-MB-435 [17]): 77.9%; growth at 1 µM (MDA-MB-435 [18]): 100%; growth at 0.1 µM (MDA-MB-435 [19]): 100%; growth at 0.1 µM (NCI-H226 [20]): 88.9%; activity at 0.25 h, 0.1 µM (CYP1A1 [21]): 98.4%; growth at 1 µM (MCF7 [22]): 74.2%; activity at 0.25 h, 1 µM (CYP1A1 [23]): 96.7%; growth at 0.1 µM (MCF7 [24]): 80.4%; growth at 100 µM (MCF7 [25]): 25.3%; growth at 10 µM (MDA-MB-468 [26]): 94.8% |

Reference: ChEMBL document CHEMBL5257023, “Identification of leads for antiproliferative activity on MDA-MB-435 human breast cancer cells through pharmacophore and CYP1A1-mediated metabolism” (Eur J Med Chem, 2016)
